Columns and labels:
[1] = Stability tests of analytes in rat plasma QC samples; assay type: in vitro ADME; settings: rat plasma
Procedure: […] The dilution integrity was investigated by analyzing six replicate samples with each analyte, and each analyte were diluted 10-fold with blank rat matrix. Furthermore, the diluted samples were analyzed using freshly prepared calibration curve to calculate RE and RSD, which should be no more than ± 15% as criterion.

[2] = Biliary (hepatobiliary) excretion in rats after a 30-min infusion of Kang-Ai injection; assay type: in vivo, Sprague–Dawley rats; settings: rat bile 0–12 h; Kang-Ai injection 6 mL/kg iv
In short: (§1)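 Urine collected in metabolic cages at 0–4, 4–8, 8–12 h and bile at 0–3, 3–6, 6–9, 9–12 h after infusion start, weighed and frozen at −80 °C. Non-compartmental analysis; CLR and CLB as cumulative urinary or biliary amount divided by plasma AUC0-∞, fe-U and fe-B as cumulative amount/dose; mean ± SD (n = 3).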

[3] = Urinary (renal) excretion in rats after a 30-min infusion of Kang-Ai injection; assay type: in vivo, Sprague–Dawley rats; settings: rat urine 0–12 h; Kang-Ai injection 6 mL/kg iv
In short: as §1

[4] = Protein binding assay (equilibrium dialysis); assay type: in vitro ADME, rat; settings: rat plasma; equilibrium dialysis 24 h, 37 °C; 2 μmol/L alkaloids, 4 μmol/L saponins
Procedure: Binding of circulating alkaloids and saponins to rat plasma was measured by equilibrium dialysis using Spectra/Por 2 dialysis membranes (molecular weight cutoff, 12–14 kDa; Rancho Dominguez, CA, USA) as described. After equilibrating for 24 h at 55 rpm and 37 °C, the dialysate and the plasma were sampled for analysis. […] The concentrations of tested matrine, oxysophocarpine and oxymatrine were 2 μmol/L, while those of astragaloside IV, III, and ginsenosides Rh1, Rg2, Rg1, Rf, Re, Rd, Rc, Rb1, Rb2, notoginsenosides R1, R2, were 4 μmol/L. The unbound fraction (fu-plasma) in rat plasma was calculated as follow: fu-plasma = Cd/Cp × 100%, where the Cd and Cp values were the concentrations of each analyte in the dialysate sample and in the post-dialysis plasma sample, respectively.

[5] = Plasma pharmacokinetics in rats after a 30-min intravenous infusion of Kang-Ai injection; assay type: in vivo, Sprague–Dawley rats; settings: rat plasma, 30-min iv infusion of Kang-Ai injection 6 mL/kg
In short: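 Fasted male Sprague–Dawley rats (250 ± 20 g) got a single 30-min tail-vein infusion of Kang-Ai injection at 6 mL/kg. Jugular blood was sampled from 5 min to 12 h for plasma. Parameters came from non-compartmental analysis (trapezoidal AUC), n = 3.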

[6] = test system: UGT2B7; parameters: method as in PMID 27916843; settings: read-out: Ki towards UGT2B7; cited from earlier work
[7] = test system: UGT1A8; settings: cited from earlier work

SMILES: CC(C)=CCC[C@](C)(O[C@@H]1O[C@H](CO)[C@@H](O)[C@H](O)[C@H]1O)[C@H]1CC[C@]2(C)[C@@H]1[C@H](O)C[C@@H]1[C@@]3(C)CC[C@H](O)C(C)(C)[C@@H]3[C@@H](O[C@@H]3O[C@H](CO)[C@@H](O)[C@H](O)[C@H]3O[C@@H]3OC[C@@H](O)[C@H](O)[C@H]3O)C[C@]12C [Compound C8, Notoginsenoside R1]
- At -80 °C for 48 h, Mean±SD ([1]; nominal conc. 20 nM): 20.74 ± 0.96 nM
- At -80 °C for 48 h, RE ([1]; nominal conc. 20 nM): 8.27%
- Extracted samples at 8 °C for 18 h, Mean±SD ([1]; nominal conc. 20 nM): 19.67 ± 2.39 nM
- Extracted samples at 8 °C for 18 h, RE ([1]; nominal conc. 20 nM): -11.85%
- Short-term stability at room temperature for 6 h, Mean±SD ([1]; nominal conc. 20 nM): 17.74 ± 0.16 nM
- Short-term stability at room temperature for 6 h, RE ([1]; nominal conc. 20 nM): -12.08%
- Three freeze-thaw cycles (-80 °C ↔ 23 °C), Mean±SD ([1]; nominal conc. 20 nM): 21.51 ± 1.68 nM
- Three freeze-thaw cycles (-80 °C ↔ 23 °C), RE ([1]; nominal conc. 20 nM): 12.79%
- At -80 °C for 48 h, Mean±SD ([1]; nominal conc. 100 nM): 98.21 ± 9.98 nM
- At -80 °C for 48 h, RE ([1]; nominal conc. 100 nM): 9.58%
- Extracted samples at 8 °C for 18 h, Mean±SD ([1]; nominal conc. 100 nM): 97.66 ± 12.82 nM
- Extracted samples at 8 °C for 18 h, RE ([1]; nominal conc. 100 nM): 12.46%
- Short-term stability at room temperature for 6 h, Mean±SD ([1]; nominal conc. 100 nM): 92.24 ± 4.21 nM
- Short-term stability at room temperature for 6 h, RE ([1]; nominal conc. 100 nM): -10.97%
- Three freeze-thaw cycles (-80 °C ↔ 23 °C), Mean±SD ([1]; nominal conc. 100 nM): 97.29 ± 6.47 nM
- Three freeze-thaw cycles (-80 °C ↔ 23 °C), RE ([1]; nominal conc. 100 nM): -10.11%
- At -80 °C for 48 h, Mean±SD ([1]; nominal conc. 400 nM): 413.01 ± 31.69 nM
- At -80 °C for 48 h, RE ([1]; nominal conc. 400 nM): 11.76%
- Extracted samples at 8 °C for 18 h, Mean±SD ([1]; nominal conc. 400 nM): 402.54 ± 33.33 nM
- Extracted samples at 8 °C for 18 h, RE ([1]; nominal conc. 400 nM): 9.82%
- Short-term stability at room temperature for 6 h, Mean±SD ([1]; nominal conc. 400 nM): 357.29 ± 9.94 nM
- Short-term stability at room temperature for 6 h, RE ([1]; nominal conc. 400 nM): -13.09%
- Three freeze-thaw cycles (-80 °C ↔ 23 °C), Mean±SD ([1]; nominal conc. 400 nM): 379.04 ± 38.85 nM
- Three freeze-thaw cycles (-80 °C ↔ 23 °C), RE ([1]; nominal conc. 400 nM): -14.53%
- fe-B,0–12h (fraction of dose excreted into bile) [2]: 12.00 ± 1.57%
- fe-U,0–12h (fraction of dose excreted into urine) [3]: 72.12 ± 13.01%
- fu-plasma (unbound fraction) [4]: 90.36 ± 4.22%
- t1/2 [5]: 45 ± 9.6 min
- Cmax ([5]; read-out: Cmax): 121 ± 21.1 nM

SMILES: CC(C)(O)[C@@H]1CC[C@](C)([C@H]2[C@@H](O)C[C@@]3(C)[C@@H]4C[C@H](O)[C@H]5C(C)(C)[C@@H](O)CC[C@@]56C[C@@]46CC[C@]23C)O1 [cycloastragenol]
- Ki [6]: 21 µM
- Ki [7]: 0.034 µM
